Measurements published in patent US6048540A, “Acetamenophen composition with reduced liver toxicity” (Chong Kun Dang Corp., priority 1997, dated 2000).

Tests used:
[1] = Stability test: content on storage and shelf life; conditions: calculated with Arrehnius equation; component of prescription (b) of Example 2
[2] = low dose; cited from earlier work

SMILES | Shelf life (time that content maintains more than 90% of initial at 25° C.) [1] [months] | eliminated as unmetabolized form [2]
N[C@@H](CC(=O)[O-])C(=O)[O-].O.[Na+].[Na+] [Sodium L-aspartate monohydrate] | 33.86 | 
CC(=O)Nc1ccc(O)cc1 [Acetaminophen] | 35.94 | about 2%
Cn1c(=O)c2c(ncn2C)n(C)c1=O [Caffeine anhydrous] | 89.84 | 
CSCCC(N)C(=O)O (racemic) [DL-Methionine] | 35.64 | 
